Results from patent US10039284B2, “Pesticidal compositions” (priority 2006, dated 2018).
Where “and” joins values, the source holds several entries; their conditions need not be identical. Identical values can stand only once. Like-named read-outs stand apart in the source and are kept apart here.

Experiments:
[1] = test system: Common Cutworm (Spodoptera litura); assay: whole plant or invertebrate; conditions: for Mortality (%): 5th or 6th day
Description: They were diluted to a predetermined concentration with water containing a spreader (Shin-Rinoh 0.040) and subjected to the test by themselves or as a mixed liquid.
A leaf segment of cabbage was dipped for about 10 seconds in an insecticidal solution and dried in air. A wet filter paper was laid in a petri dish having a diameter of 9 cm, and the dried leaf segment of cabbage was placed thereon. 10 Second-instar larvae of common cutworm were released therein and after putting a cover, left in a constant temperature chamber at 25° C. with lightening. On the 5th or 6th day after release, dead larvae were counted, and the mortality was calculated by the following equation. Here, the insects that were moribund were counted as dead insects. Mortality (%)={(number of dead insects)/(number of surviving insects+number of dead insects)}×100
Further, the theoretical mortality (%) can be calculated from the colby's formula.

[2] = test system: Green Peach Aphid (Myzus persicae); assay: Test on Controlling Effects Against Green Peach Aphid (radish leaf dip); format: in vivo; conditions: third day after the dipping; for mortality at 0.05 ppm: other pesticide alone 0.05 ppm; for mortality at 100 ppm: other pesticide alone 100 ppm; for mortality at 200 ppm: other pesticide alone 200 ppm
Description: Japanese radish leaf (cut into about 2 cm×3 cm) was put in a test tube in which water was put, and Larvae of green peach aphid were released on the leaf. […] On the third day after the dipping, dead larvae were counted, and the mortality was calculated from the following equation. Aphids that dropped from leaf or were moribund were included in the number of dead. […] Mortality (%)=(number of dead insects/number of treated insects)×100

[3] = test system: Green Rice Leafhopper (Nephotettix cincticeps); assay: Test on Controlling Effects Against Green Rice Leafhopper (rice seedling dip); format: in vivo
Source text: The root was wrapped with absorbent cotton wet with water, and the rice seedling was put in a test tube.

[4] = Spodoptera litura, in Brassica oleracea, foliar

Molecule `Cc1c(COC(=O)[C@@H]2[C@H](/C=C(\Cl)C(F)(F)F)C2(C)C)cccc1-c1ccccc1` (racemic) [Bifenthrin, bifenthrin] has a mortality at 0.4 ppm [1, 4] of 0%, a mortality at 0.8 ppm [1, 4] of 40% and a mortality at 0.025 ppm ([2]; Myzus persicae, foliar, other pesticide alone 0.025 ppm) of 0%. The mortality at 0.05 ppm ([2]; Myzus persicae, foliar) was 4%.

In the case of `C/C=C(\C)C(=O)O[C@H]1C[C@@H](OC(C)=O)[C@@]2(C(=O)OC)CO[C@H]3[C@@H](O)[C@@](C)([C@]45O[C@@]4(C)[C@H]4C[C@@H]5O[C@@H]5OC=C[C@@]54O)[C@H]4[C@]1(CO[C@]4(O)C(=O)OC)[C@@H]32` [Azadirachtin, azadirachtin], the mortality at 3.1 ppm [1, 4] is reported as 0%, the mortality at 6.2 ppm ([2]; Myzus persicae, foliar, other pesticide alone 6.2 ppm) is reported as 0% and the mortality at 12.5 ppm ([2]; Myzus persicae, foliar, other pesticide alone 12.5 ppm) is reported as 88%.

In the case of `CO/C=C(/C(=O)OC)c1ccccc1Oc1cc(Oc2ccccc2C#N)ncn1` [Azoxystrobin, azoxystrobin], the “Mortality (%)” value ([3]; other pesticide alone 25 ppm, 5th or 6th day) is reported as 30%.

For `CCC1(C(=O)N[C@H](C)c2ccc(Cl)cc2)C(C)C1(Cl)Cl` (stereo partly shown) [Carpropamid, carpropamid], the mortality at 100 ppm ([2]; Myzus persicae, foliar) was 82% and the mortality at 200 ppm ([2]; Myzus persicae, foliar) was 93%.

With `CC(NC(=O)c1cc(Cl)cc(Br)c1NC(=O)c1cc(Br)nn1-c1ncccc1Cl)C1CC1` (stereo not drawn) [Compound No. 1, N-[2-bromo-4-chloro-6-[[α-methyl-(cyclopropylmethyl)amino]carbonyl]-phenyl]-3-bromo-1-(3-chloro-2-pyridyl)-1H-pyrazole-5-carboxamide] the “Mortality (%)” value ([1]; Compound No. 1 alone 0.02 ppm) was 100% and 90% and 70% and 60% and 50%, the “Mortality (%)” value ([2]; Compound No. 1 alone 0.8 ppm) was 8% and 11% and the “Mortality (%)” value ([2]; Compound No. 1 alone 1.5 ppm) was 46% and 28%. The “Mortality (%)” value ([3]; Compound No. 1 alone 0.4 ppm, 5th or 6th day) was 30% and 50%.

Molecule `C[C@@H](NC(=O)C(C#N)C(C)(C)C)c1ccc(Cl)cc1Cl` (stereo partly shown) [Diclocymet, diclocymet] has a mortality at 18.8 ppm [1, 4] of 0%, a mortality at 37.5 ppm [1, 4] of 0% and a mortality at 75 ppm [1, 4] of 0%. It also gave a mortality at 0.4 ppm ([3]; Nephotettix cincticeps) of 0% and a mortality at 0.8 ppm ([3]; Nephotettix cincticeps) of 0%.

`Cc1c(Cl)cc(-c2ccc(=O)[nH]n2)cc1Cl` [Diclomezine, diclomezine] was tested, and the mortality at 100 ppm ([2]; Myzus persicae, foliar) was 0% and the mortality at 200 ppm ([2]; Myzus persicae, foliar) was 0%.

With `N#CCNC(=O)c1cnccc1C(F)(F)F` [Flonicamid, flonicamid] the “Mortality (%)” value ([1]; other pesticide alone 25 ppm) was 0%, the “Mortality (%)” value ([1]; other pesticide alone 50 ppm) was 30% and the “Mortality (%)” value ([1]; other pesticide alone 100 ppm) was 0%. For the same molecule, the “Mortality (%)” value ([2]; other pesticide alone 0.8 ppm) was 38% and the “Mortality (%)” value ([2]; other pesticide alone 1.5 ppm) was 70%.

`CC(C)Oc1cccc(NC(=O)c2ccccc2C(F)(F)F)c1` [Flutolanil, flutolanil] gave a mortality at 125 ppm ([2]; Myzus persicae, foliar, other pesticide alone 125 ppm) of 0% and a mortality at 250 ppm ([2]; Myzus persicae, foliar, other pesticide alone 250 ppm) of 6%.

Molecule `O=C1OCc2c(Cl)c(Cl)c(Cl)c(Cl)c21` [Fthalide, fthalide] has a mortality at 50 ppm [1, 4] of 0%, a mortality at 100 ppm [1, 4] of 0% and a mortality at 200 ppm [1, 4] of 0%. The mortality at 50 ppm ([3]; Nephotettix cincticeps, other pesticide alone 50 ppm, 5th or 6th day) was 0%, the mortality at 100 ppm ([3]; Nephotettix cincticeps, other pesticide alone 100 ppm, 5th or 6th day) was 0% and the mortality at 200 ppm ([3]; Nephotettix cincticeps, other pesticide alone 200 ppm, 5th or 6th day, read-out: Mortality (%)) was 0%.

`O=[N+]([O-])NC1=NCCN1Cc1ccc(Cl)nc1` [Imidacloprid, imidacloprid] was tested, and the mortality at 12.5 ppm [1, 4] was 20%, the mortality at 50 ppm [1, 4] was 75% and the mortality at 0.05 ppm ([2]; Myzus persicae, foliar) was 60%. The mortality at 0.1 ppm ([2]; Myzus persicae, foliar, other pesticide alone 0.1 ppm) was 67%.

`CC(C)OC(=O)C(C(=O)OC(C)C)=C1SCCS1` [Isoprothiolane, isoprothiolane] showed a mortality at 200 ppm ([3]; Nephotettix cincticeps) of 50%.

In the case of `C[C@H]1O[C@H](O[C@H]2[C@H](O)[C@@H](O)[C@@H](O)[C@H](O)[C@@H]2O)[C@@H](N)C[C@@H]1NC(=N)C(=O)O` [Kasugamycin, kasugamycin], the “Mortality (%)” value ([2]; other pesticide alone 11.5 ppm) is reported as 0%.

In the case of `Cc1ccccc1C(=O)Nc1cccc(OC(C)C)c1` [Mepronil, mepronil], the mortality at 187.5 ppm ([3]; Nephotettix cincticeps) is reported as 0%.

Molecule `C=CCOC1=NS(=O)(=O)c2ccccc21` [Probenazole, probenazole] has a mortality at 100 ppm ([2]; Myzus persicae, foliar) of 0%, a mortality at 200 ppm ([2]; Myzus persicae, foliar) of 13% and a mortality at 200 ppm ([3]; Nephotettix cincticeps) of 0%.

With `Cc1cccc2sc3nncn3c12` [Tricyclazole, tricyclazole] the mortality at 100 ppm ([2]; Myzus persicae, foliar) was 13% and the mortality at 200 ppm ([2]; Myzus persicae, foliar) was 0%.

For `OCC1=C[C@H](N[C@H]2C[C@H](CO)[C@@H](O[C@@H]3O[C@H](CO)[C@@H](O)[C@H](O)[C@H]3O)[C@H](O)[C@H]2O)[C@H](O)[C@@H](O)[C@@H]1O` [Validamycin, validamycin], the mortality at 25 ppm [1, 4] was 0% and the mortality at 50 ppm [1, 4] was 0%.

Work on `CC1(C)C(C=C(Cl)Cl)C1C(=O)OC(C#N)c1cccc(Oc2ccccc2)c1` (stereo not shown) [Zeta-cypermethrin, zeta-cypermethrin] yielded a mortality at 0.4 ppm [1, 4] of 0%, a mortality at 0.8 ppm [1, 4] of 0% and a mortality at 1.5 ppm [1, 4] of 20%.

In the case of `CC(C)([CH2][Sn]([CH2]C(C)(C)c1ccccc1)([CH2]C(C)(C)c1ccccc1)[O][Sn]([CH2]C(C)(C)c1ccccc1)([CH2]C(C)(C)c1ccccc1)[CH2]C(C)(C)c1ccccc1)c1ccccc1` [fenbutatin oxide], the “Mortality (%)” value ([1]; other pesticide alone 200 ppm) is reported as 0%.

emamectin-benzoate was tested, and the “Mortality (%)” value ([1]; other pesticide alone 0.0025 ppm) was 0%, the “Mortality (%)” value ([1]; other pesticide alone 0.005 ppm) was 10% and the “Mortality (%)” value ([1]; other pesticide alone 0.01 ppm) was 30%.

spinosad was tested, and the “Mortality (%)” value ([1]; other pesticide alone 1.5 ppm) was 20%, the “Mortality (%)” value ([1]; other pesticide alone 3.1 ppm) was 60% and the “Mortality (%)” value ([1]; other pesticide alone 6.2 ppm) was 60%.
